We go through 1 compound from PMC10568017, “A quest for the stereo-electronic requirements for selective agonism for the neurotrophin receptors TrkA and TrkB in 17-spirocyclic-dehydroepiandrosterone derivatives” (Frontiers in Molecular Neuroscience, 2023).

One data set deals with T1, CYP2C9 (Homo sapiens, UniProt P11712).
T1 construct: purchased Thermo Fisher Scientific; host or cells: Baculosomes
The data set is described as follows: Isozyme-specific CYP450 inhibition, CYP2C9. Format: in vitro ADME. Conditions: 1 μM, 60 min, recombinant human CYP450 (Baculosomes). As for the experimental part: Human cytochrome P450 (CYP450) isoenzymes were expressed in Baculosomes®, purchased from Thermo Fisher Scientific (Waltham, MA, USA). All reagents were handled and prepared according to the manufacturer's protocol. Test compounds were assessed at 1 μM for their effects on CYP1A2, CYP2A6, CYP2C9, CYP2C19, CYP2D6, and CYP3A4. Approximately 1 μM was selected based on our ADMET standard operating procedures and protocols also published previously (Rogdakis et al., [2022]; Yilmaz et al., [2022]). CYP450-enzymatic activity was determined based on the kinetic model for each CYP450 isoform (Cohen et al., [2003]; Veith et al., [2009]). Reactions took place in triplicates at 20°C. For this, NADP^+ (10 mM in 100 mM potassium phosphate, pH 8.0) was converted into NADPH by the regeneration system present (glucose-6-phosphate at 333 mM and glucose-6-phosphate-dehydrogenase at 30 U/mL in 100 mM potassium phosphate, pH 8.0). Following the addition of the fluorescent substrate, signal monitoring over time took place immediately (<2 min) at suitable excitation and emission wavelengths (Agilent BioTek Lionheart FX). CYP450 inhibition (%) was determined based on the reaction rates (fluorescence intensity changes per unit time). In total, n = 60 measurements […] were acquired (t = 60 min).
% Inhibition=(1-X/A)×100%
X is the rate observed in the presence of the test compound.
A is the rate observed in the presence of the negative (solvent, DMSO) control.

The next data set has as its target T2, TrkB (Mus musculus, UniProt P15209).
T2 construct: primary cortical astrocytes from 2-day-old mice (as a natively TrkB-expressing neuronal population); endogenous in cells; host or cells: primary cortical astrocytes from C57B/6 mouse pups (P2)
The data set is described as follows: TrkB phosphorylation assay in primary astrocytes (Western blot). As to conditions: compound 1 μM, 20 min, after 6 h serum starvation, BDNF 500 ng/mL as control. Format: cell-based. As for the experimental part:
We tested compounds on three cellular systems, primary cortical astrocytes from 2-day-old mice (as a natively TrkB-expressing neuronal population), and NIH-3T3 fibroblasts stable transfected with TrkB and NIH-3T3 naïve cells. Cells were grown with high-glucose DMEM medium supplemented with 10% fetal bovine serum (FBS), 100 μg/mL streptomycin, and 100 units/mL penicillin at 37°C in a humidified 5% CO2 atmosphere. Phosphorylation results presented here are in primary astrocytes, and cell toxicity assay results are in NIH-3T3 stable transfected cells with TrkB.
Cells were plated in 12 well plates, at a density of 100,000 cells per well, with 6 h of serum deprivation carried out on the following day. To assess the effect of compounds on TrkB phosphorylation, 20-min treatments were applied, using either BDNF at 500 ng/mL (Peprotech 450-02) (positive control) or compounds at 1 μM.
Cell lysis for 10 min was carried out on ice using the Pierce IP Lysis Buffer by Thermo Scientific and a phospho-protease inhibitor cocktail by Millipore. After adding loading buffer (5 × Laemni), 25 μg from each protein sample were incubated for 5 min at 95°C and subjected to SDS-PAGE. Proteins were transferred to a nitrocellulose membrane at 350 mA for 2 h. Membrane blocking was performed using 5% bovine serum albumin (BSA) at room temperature for 1 h, before adding the primary antibodies to the blocking solution at 4°C overnight. HRP-conjugated secondary antibodies were used for the detection of chemiluminescence with ECL solution. Primary antibodies: Phospho-TrkB (Tyr816) Millipore # ABN1381, and Anti-TrkB Abcam #ab33655.
Mixed glial cultures were isolated from the cortex of C57B/6 pups at post-natal day 2 (P2). Cells were plated in a medium containing high-glucose DMEM, 200 U/mL penicillin, 200 μg/mL streptomycin, and 10% fetal bovine serum (FBS). When cells reach 100% confluency (7–8 days), the anti-mitotic agent Ara-C was added in the media at a final concentration of 10 μM, for 3 to 4 days to target the highly proliferative microglial cells. Ara-C was removed, and primary astrocytes (97% purity) were cultured at 5% CO2 and 37°C.
Cells were plated at 70–80% confluency. The next day, they were deprived of serum for 6 h and subsequently treated with 500 ng/mL BDNF or 1 μM of compounds for 20 min. Cells were then lysed in Pierce™ IP Lysis Buffer (87788, Thermo Fischer Scientific, Rockford, USA), containing proteases (539138, Calbiochem, Darmstadt, Germany), and phosphatase inhibitors (524629, Calbiochem, Darmstadt, Germany). Lysates were then suspended in an SDS loading buffer and subjected to Western blot against phosphorylated TrkB (1:1,000, ABN1381, Sigma-Aldrich, St. Louis, MO, USA) and total TrkB (1:1,000, 07-225-I, Sigma-Aldrich, St. Louis, MO, USA).
On the technique in general: A western blot detects proteins with antibodies after separation by electrophoresis.

SMILES strings stand for the structures.

T2 sequence (P15209 32-821): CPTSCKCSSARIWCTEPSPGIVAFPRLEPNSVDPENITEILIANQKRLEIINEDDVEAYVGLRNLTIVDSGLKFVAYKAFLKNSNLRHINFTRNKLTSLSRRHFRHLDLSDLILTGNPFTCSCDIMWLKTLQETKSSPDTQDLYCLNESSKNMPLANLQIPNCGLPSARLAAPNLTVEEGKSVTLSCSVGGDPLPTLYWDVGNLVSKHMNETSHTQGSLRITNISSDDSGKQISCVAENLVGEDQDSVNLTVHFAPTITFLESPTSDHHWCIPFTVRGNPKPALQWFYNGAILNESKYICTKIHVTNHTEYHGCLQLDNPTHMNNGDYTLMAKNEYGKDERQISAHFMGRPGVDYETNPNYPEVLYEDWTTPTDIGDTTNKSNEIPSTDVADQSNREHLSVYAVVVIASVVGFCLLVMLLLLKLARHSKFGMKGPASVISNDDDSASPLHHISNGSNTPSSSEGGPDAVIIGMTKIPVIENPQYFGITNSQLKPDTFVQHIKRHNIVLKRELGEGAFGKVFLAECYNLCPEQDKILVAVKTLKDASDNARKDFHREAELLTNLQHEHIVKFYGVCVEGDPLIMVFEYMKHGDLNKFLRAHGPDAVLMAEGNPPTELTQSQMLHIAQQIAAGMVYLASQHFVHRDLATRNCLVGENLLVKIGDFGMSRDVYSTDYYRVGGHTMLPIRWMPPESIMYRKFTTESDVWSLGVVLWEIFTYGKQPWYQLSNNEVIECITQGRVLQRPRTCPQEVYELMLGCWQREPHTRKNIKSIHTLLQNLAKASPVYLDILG
T1 sequence (P11712 whole entry): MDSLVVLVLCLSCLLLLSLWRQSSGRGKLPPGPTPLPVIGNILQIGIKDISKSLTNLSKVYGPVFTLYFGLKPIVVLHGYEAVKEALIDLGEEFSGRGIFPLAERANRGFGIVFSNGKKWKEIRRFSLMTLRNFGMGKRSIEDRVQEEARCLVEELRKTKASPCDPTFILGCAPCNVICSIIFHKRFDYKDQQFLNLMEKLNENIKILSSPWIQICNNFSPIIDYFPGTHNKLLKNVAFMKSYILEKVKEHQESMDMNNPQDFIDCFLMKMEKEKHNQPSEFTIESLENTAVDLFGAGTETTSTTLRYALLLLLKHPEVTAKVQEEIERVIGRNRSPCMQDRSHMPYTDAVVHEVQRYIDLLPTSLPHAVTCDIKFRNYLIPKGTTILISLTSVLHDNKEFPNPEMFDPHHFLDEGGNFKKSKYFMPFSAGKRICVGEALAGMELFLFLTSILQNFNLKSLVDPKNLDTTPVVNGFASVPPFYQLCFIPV

Regarding `C[C@]12CC[C@H](O)CC1=CC[C@@H]1[C@@H]2CC[C@@]2(C)[C@H]1CC[C@@]21CC=C(Cn2cc(Cc3ccccc3)nn2)CO1` [ENT-A055, (3S,17R)-5′-[(4-benzyl-1H-1,2,3-triazol-1-yl)methyl]-3′,6′-dihydrospiro[5-androstene-17,2′-pyran]-3-ol], at CYP2C9, the “inhibition for CYP2C9” value is recorded as “moderate-to-strong inhibition”. Also, the “phosphorylation levels of the TrkB receptor” value on TrkB is listed as “successfully increased phosphorylation levels of the TrkB receptor compared to the untreated control”.
